Test results published in patent US20170234881A1, “METHODS OF DIAGNOSING AND TREATING CANCER” (INSERM ( INSTITUT NATIONAL DE LA SANTÉ ET DE LA RECHERCHE …, priority 2014, published 2017).

What was measured:
[1] = system: TS/A tumors; test: Growth of TS/A tumors implanted s.c. into mice; format: in vivo; details: after 13 days, s.c. every day, Tam 56 mg/kg or DDA 20 mg/kg alone
Procedure: FIG. 2. OCDO is a tumor promoter in vitro and in vivo and its inhibition contributes to the anti-tumor effects of Tam and DDA. (A, B) Histograms representing the effect of OCDO or 17β-estrogen (E2) on MCF7 (A) and TS/A (B) cell proliferation after 24 h treatment using a colorimetric immunoassay measuring BrDU incorporation in DNA (C, D) Histogram representing the effect of OCDO on MCF7 (C) and TS/A (D) cell invasion. Data are the mean of three separate experiments (±s.e.m), *P<0.05, **P<0.01, ***P<0.001 (Student's t-test). (E, F) Mice were implanted s.c. with MCF7 (E) or TS/A (F) cells and animals (8 per group) were treated s.c. every day starting on the day of implantation with either the solvent vehicle or OCDO (16 μg/kg for MCF7 or 50 μg/kg for TS/A). Animals were monitored for tumour growth twice a week. The data are representative of three independent experiments. The mean tumor volume±s.e.m is shown, *P<0.05, **P<0.01, ***P<0.001 (analysis of variance (ANOVA), Dunnett's post test). (G) Mean (±s.e.m) of Ki67 positive cell number determined from IHC staining of MCF7 tumor sections from (E), n=8, *P<0.05 (Student's t-test) using HistoQuant, Pannoramic Viewer (3DHistech). (H) Representative Ki67 staining of TS/A tumor sections from (F) showing increased staining in OCDO-treated tumor compared with control-treated tumor. (I, J, K). Murine E0771(I), or human MDA-MB231 (J) or MDA-MB468 (K) cells implanted s.c. into mice (8 per group) and animals were treated s.c. with either the solvent vehicle or OCDO (16 μg/kg for MDA-MB-231 and MDA-MB-468 or 50 μg/kg for E0771). The data are representative of two independent experiments. Statistical analysis was performed as in E and F. (L) Mice were implanted s.c. with TS/A cells and animals (8 per group) were treated s.c. every day with either the solvent vehicle, OCDO (50 μg/kg), Tam (56 mg/kg), DDA (20 mg/kg) or the combination of Tam (56 mg/kg) +OCDO (50 μg/kg) or DDA (20 mg/kg)+OCDO (50 μg/kg). The data are representative of three independent experiments. Statistical analysis was performed as in E and F.
Exponentially growing MCF7, ShMCF7, E0771, MDA-MB231, MDA-MB468 and TS/A cells were collected, washed twice in PBS and resuspended in PBS. TS/A and E9771 tumours were prepared by subcutaneous transplantation of 35×10^3 cells or 3×10^5 cells respectively in 100 μl PBS into the flank of BALB/c or C57B16 mice. For other tumors, 5 to 10×10^6 cells in 200 μl PBS/matrigel (1/1) were injected into the flank of NMRI nude mice. Animals were treated as indicated in the legends. Animals were examined daily, and body weights were measured twice per week. In all the experiments, the tumor volume was determined by direct measurement with a caliper and was calculated using the formula (width^2×length)/2. Tumors were either frozen in liquid nitrogen or fixed in 10% neutral-buffered formalin and embedded in paraffin for immunohistochemical analysis. Paraffin sections were stained with haematoxylin and eosin for histomorphological analyses. Immunohistochemical staining was done on paraffin-embedded tissue sections, using a specific Ki67 antibody (Dako).
We then assayed the anti-growth effect of Tam or DDA against TS/A tumors in the absence and presence of OCDO. As above, TS/A tumors implanted into immunocompetent mice were treated s.c. every day either with either the solvent vehicle (control), OCDO (50 μg/kg), Tam (56 mg/kg), DDA (20 mg/kg) or the combination of Tam (56 mg/kg)+OCDO (50 μg/kg) or DDA (20 mg/kg) +OCDO (50 μg/kg).

[2] = system: shHSD2 MCF7 cells; test: Proliferation of shHSD2 MCF7 cells (BrDU); format: cell-based, human; details: sh11HSD2 MCF7 cells, 24 h; OCDO 5 μM; cortisone increasing concentrations
Procedure: FIG. 7. Knock-down of 11βHSD2 decreases cell proliferation, invasion and survival in MCF7 cells as well as tumor growth and OCDO reverses these effects. shC or shHSD2 MCF7 cells were analyzed as followed: (A) The proliferation of sh-C or shHSD2 cells treated or not with OCDO 5 μM 24 h was measured using quantification of DNA BrDU incorporation as described in FIG. 2A. (B) The proliferation of sh-C or shHSD2 cells treated or not with increasing concentration of cortisone for 24 h was measured as in (A). (C) The invasiveness of sh-C or shHSD2 cells treated or not with OCDO 5 μM for 72 h was assayed using matrigel-coated filters. (D) the formation of colony by sh-C or shHSD2 cells treated or not with OCDO 1 μM was quantified as described in FIG. 6F. […] Animals were monitored for tumor growth twice a week. […] (F) Mean (±s.e.m) of Ki67 positive cell number determined from IHC staining of shC or shHSD2 MCF7 tumor sections from (E), n=8, *P<0.05 (Student's t-test) using HistoQuant, Pannoramic Viewer (3DHistech).
MCF7 or HEK293T cells (5×10^6 cells) were transfected with 5 μg of the indicated plasmid using the NEON Transfection System and according to the manufacturer's recommendations. […] Several clones were analyzed by immunoblot analysis and real time RT-qPCR for the knock down of the expression of the protein of interest. […]

SMILES	inhibition of TS/A tumor growth compared with the control group [1]	effect on the inhibition of cell proliferation induced by 11βHSD2 knock-down [2]
CC(C)CCCC(C)[C@H]1CCC2C3C[C@@H](NCCc4cnc[nH]4)[C@@]4(O)C[C@@H](O)CC[C@]4(C)C3CC[C@@]21C (stereo partly drawn) [DDA, 5-hydroxy-6-[2-(1H-imidazol-4-yl)ethylamino]cholestan-3-ol, reference compound]	33%	–
CC/C(=C(\c1ccccc1)c1ccc(OCCN(C)C)cc1)c1ccccc1 [Tam, (Z)-2-[4-(1,2-diphenylbut-1-enyl)phenoxy]-N,N-dimethylethanamine, reference compound]	31%	–
C[C@]12CCC(=O)C=C1CC[C@@H]1[C@@H]2C(=O)C[C@@]2(C)[C@H]1CC[C@]2(O)C(=O)CO [cortisone, reference compound]	–	did not
